Source: ChEMBL document CHEMBL1201862, “PubChem BioAssay data set” (2004)
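Following 48 hours of exposure in 96-well plates, responses at five concentrations were used to interpolate endpoints linearly. GI50 marks 50% less growth.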 The source made the active and inactive calls. No stated cut-off is given here; in the data, active = GI50 up to about 1.1 µM and inactive = higher.

Experiments:
Assay in all cases: NCI-60 cell line screen, 48 h
CAKI-1 = tested on: CAKI-1
PC-3 = tested on: PC-3
SF-295 = tested on: SF-295
UACC-257 = tested on: UACC-257
KM12 = tested on: KM12
LOX IMVI = tested on: LOX IMVI
UACC-62 = tested on: UACC-62
DU-145 = tested on: DU-145
HCT-116 = tested on: HCT-116
RXF 393 = tested on: RXF 393
MOLT-4 = tested on: MOLT-4
Malme-3M = tested on: Malme-3M
COLO 205 = tested on: COLO 205
SK-OV-3 = tested on: SK-OV-3
OVCAR-4 = tested on: OVCAR-4
HCC 2998 = tested on: HCC 2998
IGROV-1 = tested on: IGROV-1
A498 = tested on: A498
HL-60 = tested on: HL-60
SR = tested on: SR
K562 = tested on: K562
NCI-H226 = tested on: NCI-H226
SW-620 = tested on: SW-620
SK-MEL-5 = tested on: SK-MEL-5
M14 = tested on: M14
OVCAR-8 = tested on: OVCAR-8
SNB-75 = tested on: SNB-75
MDA-MB-231 = tested on: MDA-MB-231
CCRF-CEM = tested on: CCRF-CEM
A549 = tested on: A549
TK-10 = tested on: TK-10
Hs-578T = tested on: Hs-578T
OVCAR-3 = tested on: OVCAR-3
786-0 = tested on: 786-0
EKVX = tested on: EKVX
NCI-H23 = tested on: NCI-H23
MCF7 = tested on: MCF7
MDA-MB-435 = tested on: MDA-MB-435
NCI-H522 = tested on: NCI-H522
HOP-92 = tested on: HOP-92
HOP-62 = tested on: HOP-62
U-251 = tested on: U-251
RPMI-8226 = tested on: RPMI-8226
HCT-15 = tested on: HCT-15
UO-31 = tested on: UO-31
OVCAR-5 = tested on: OVCAR-5
SK-MEL-28 = tested on: SK-MEL-28
SNB-19 = tested on: SNB-19
SK-MEL-2 = tested on: SK-MEL-2
BT-549 = tested on: BT-549
SF-268 = tested on: SF-268
NCI/ADR-RES = tested on: NCI/ADR-RES
MDA-N = tested on: MDA-N
HT-29 = tested on: HT-29
ACHN = tested on: ACHN
NCI-H460 = tested on: NCI-H460

Compound: CCc1c2c([nH]c(=S)c1C#N)CCC2
- GI50 (CAKI-1): > 100 µM (inactive)
- GI50 (PC-3): > 100 µM (inactive)
- GI50 (SF-295): > 100 µM (inactive)
- GI50 (UACC-257): > 100 µM (inactive)
- GI50 (KM12): > 100 µM (inactive)
- GI50 (LOX IMVI): > 100 µM (inactive)
- GI50 (UACC-62): > 100 µM (inactive)
- GI50 (DU-145): > 100 µM (inactive)
- GI50 (HCT-116): > 100 µM (inactive)
- GI50 (RXF 393): > 100 µM (inactive)
- GI50 (MOLT-4): > 100 µM (inactive)
- GI50 (Malme-3M): > 100 µM (inactive)
- GI50 (COLO 205): > 100 µM (inactive)
- GI50 (SK-OV-3): > 100 µM (inactive)
- GI50 (OVCAR-4): > 100 µM (inactive)
- GI50 (HCC 2998): > 100 µM (inactive)
- GI50 (IGROV-1): > 100 µM (inactive)
- GI50 (A498): > 100 µM (inactive)
- GI50 (HL-60): > 100 µM (inactive)
- GI50 (SR): 74.5 µM (inactive)
- GI50 (K562): > 100 µM (inactive)
- GI50 (NCI-H226): > 100 µM (inactive)
- GI50 (SW-620): > 100 µM (inactive)
- GI50 (SK-MEL-5): > 100 µM (inactive)
- GI50 (M14): > 100 µM (inactive)
- GI50 (OVCAR-8): > 100 µM (inactive)
- GI50 (SNB-75): > 100 µM (inactive)
- GI50 (MDA-MB-231): > 100 µM (inactive)
- GI50 (CCRF-CEM): 48.8 µM (inactive)
- GI50 (A549): > 100 µM (inactive)
- GI50 (TK-10): > 100 µM (inactive)
- GI50 (Hs-578T): > 100 µM (inactive)
- GI50 (OVCAR-3): > 100 µM (inactive)
- GI50 (786-0): > 100 µM (inactive)
- GI50 (EKVX): 16.9 µM (inactive)
- GI50 (NCI-H23): > 100 µM (inactive)
- GI50 (MCF7): > 100 µM (inactive)
- GI50 (MDA-MB-435): > 100 µM (inactive)
- GI50 (NCI-H522): > 100 µM (inactive)
- GI50 (HOP-92): 2.35 µM (inactive)
- GI50 (HOP-62): > 100 µM (inactive)
- GI50 (U-251): > 100 µM (inactive)
- GI50 (RPMI-8226): > 100 µM (inactive)
- GI50 (HCT-15): > 100 µM
- GI50 (UO-31): > 100 µM (inactive)
- GI50 (OVCAR-5): > 100 µM (inactive)
- GI50 (SK-MEL-28): > 100 µM (inactive)
- GI50 (SNB-19): > 100 µM (inactive)
- GI50 (SK-MEL-2): > 100 µM (inactive)
- GI50 (BT-549): > 100 µM (inactive)
- GI50 (SF-268): > 100 µM (inactive)
- GI50 (NCI/ADR-RES): > 100 µM (inactive)
- GI50 (MDA-N): > 100 µM (inactive)
- GI50 (HT-29): > 100 µM (inactive)
- GI50 (ACHN): > 100 µM (inactive)
- GI50 (NCI-H460): > 100 µM (inactive)
